Results on eleven compounds are retold here after patent publication US9675070B2 (BAYER CROPSCIENCE AG, priority 2013, dated 2017).

Data set [1] can be described thus: log P determination by HPLC on reversed-phase column (C18), EEC Directive 79/831 Annex V.A8. The class given is physicochemical. Particulars: method a): Agilent 1100 LC, Zorbax Eclipse Plus C18, acetonitrile/water with formic acid, gradient 10-95% in 4.25 min, 55° C. As for the experimental part: Agilent 1100 LC system; 50*4.6 Zorbax Eclipse Plus C18 1.8 micron; mobile phase A: acetonitrile (0.1% formic acid); mobile phase B: water (0.09% formic acid); linear gradient from 10% acetonitrile to 95% acetonitrile in 4.25 min, then 95% acetonitrile for a further 1.25 min; oven temperature 55° C.; flow rate: 2.0 ml/min. Mass detection is carried out via an Agilend MSD system.
^a)Unless indicated otherwise, the following method was used to determine the log P values and masses: The determination of the given log P values was carried out in accordance with EEC Directive 79/831 Annex V.A8 by HPLC (High Performance Liquid Chromatography) on a reversed-phase column (C18). Agilent 1100 LC system; 50*4.6 Zorbax Eclipse Plus C18 1.8 micron; mobile phase A: acetonitrile (0.1% formic acid); mobile phase B: water (0.09% formic acid); linear gradient from 10% acetonitrile to 95% acetonitrile in 4.25 min, then 95% acetonitrile for a further 1.25 min; oven temperature 55° C.; flow rate: 2.0 ml/min. Mass detection is carried out via an Agilend MSD system. ^b)Note for the alternative method for determining log P values and masses: The stated log P values were determined in accordance with EEC Directive 79/831 Annex V.A8 by HPLC (High Performance Liquid Chromatography) using a reversed-phase column (C18). Waters ACQUITY UPLC-MS system; 2.1*50 mm Zorbax Eclipse Plus C18 1.8 μm 600 bar; injection volume: 0.5 ul about 1000 ppm; mobile phase A: acetonitrile (0.1% formic acid); mobile phase B: water (0.085% formic acid); linear gradient from 10% acetonitrile to 95% acetonitrile in 1.5 min, then 95% acetonitrile for a further 0.5 min; oven temperature 60° C.; flow rate: 1.0 ml/min. Mass detection is carried out via a Waters SQD system.

Data set [2] relates to green peach aphid (Myzus persicae). Put plainly: Myzus persicae spray test (MYZUPE). Particulars: application rate 100 g/ha; Chinese cabbage leaf discs; after 6 days. The class given is in vivo. As for the experimental part: Myzus persicae—spray test (MYZUPE)
Solvents: 78 parts by weight of acetone
(§1) • 1.5 parts by weight of dimethylformamide Emulsifier: alkylaryl polyglycol ether
(§2) To produce a suitable preparation of active compound, 1 part by weight of active compound is dissolved using the stated parts by weight of solvent and made up with water comprising an emulsifier concentration of 1000 ppm until the desired concentration is reached. To produce further test concentrations, the preparation is diluted with emulsifier-containing water.
Discs of Chinese cabbage leaves (Brassica pekinensis) infested by all stages of the green peach aphid (Myzus persicae) are sprayed with an active compound preparation of the desired concentration.
After 6 days, the efficacy in % is determined. 100% here means that all of the aphids have been killed; 0% means that no aphids have been killed.

The subject of data set [3] is engorged adult female cattle ticks (Boophilus microplus). Put plainly: Boophilus microplus injection test (BOOPMI Inj). It is filed as in vivo. Particulars: application rate 20 μg/animal; injection into abdomen; assessed after 7 days. The method, then:
Boophilus microplus Injection Test (BOOPMI Inj)
(§3) Solvent: dimethyl sulphoxide
To produce a suitable preparation of active compound, 10 mg of active compound are mixed with 0.5 ml of solvent, and the concentrate is diluted with solvent to the desired concentration.
1 μl of the active compound solution is injected into the abdomen of 5 engorged adult female cattle ticks (Boophilus microplus). The animals are transferred into dishes and kept in a climate-controlled room.
(§4) The activity is assessed after 7 days by laying of fertile eggs. Eggs whose fertility is not visible from the outside are stored in a climate-controlled cabinet until the larvae hatch after about 42 days. An efficacy of 100% means that none of the ticks has laid any fertile eggs; 0% means that all eggs are fertile.

In data set [4] the test system is adult houseflies (Musca domestica). Put plainly: Musca domestica test (MUSCDO). It is filed as in vivo. Conditions: application rate 100 ppm; after 2 days. The method, then: Musca domestica Test (MUSCDO) Solvents: dimethyl sulphoxide To produce a suitable preparation of active compound, 10 mg of active compound are mixed with 0.5 ml of dimethyl sulphoxide, and the concentrate is diluted with water to the desired concentration. Vessels containing a sponge treated with sugar solution and the active compound preparation of the desired concentration are populated with 10 adult houseflies (Musca domestica). After 2 days, the kill in % is determined. 100% means that all of the flies have been killed; 0% means that none of the flies have been killed.

Data set [5] concerns cattle ticks (Boophilus microplus) Parkhurst strain, SP-resistant. The data set is described as follows: Boophilus microplus dip test (BOOPMI Dip). The class given is in vivo. Particulars: application rate 100 ppm, assessed after 7 days. The method, then: Boophilus microplus—Dip Test (BOOPMI Dip)
Test animals: cattle ticks (Boophilus microplus) Parkhurst strain, SP-resistant
as §3
10 mg of active compound are dissolved in 0.5 ml of dimethyl sulphoxide. To prepare a suitable formulation, the active compound solution is diluted with water to the concentration desired in each case.
This active compound preparation is pipetted into tubes. 8-10 adult engorged female cattle ticks (Boophilus microplus) are transferred into a further tube with holes. The tube is immersed into the active compound formulation, and all ticks are completely wetted. After the liquid has run out, the ticks are transferred on filter discs into plastic dishes and stored in a climate-controlled room.
as §4

The test system of data set [6] is Tick nymphs (Amblyomma hebraeum). The data set is described as follows: Amblyomma hebaraeum test (AMBYHE), tick nymph immersion. It is filed as in vivo. Conditions: application rate 100 ppm; immersion one minute; after 42 days. The method, then:
Amblyomma hebaraeum Test (AMBYHE) Solvent: dimethyl sulphoxide To produce a suitable preparation of active compound, 10 mg of active compound are mixed with 0.5 ml of dimethyl sulphoxide, and the concentrate is diluted with water to the desired concentration. Tick nymphs (Amblyomma hebraeum) are placed into perforated plastic beakers and immersed in the desired concentration for one minute. The ticks are transferred on filter paper into a Petri dish and stored in a climate-controlled cabinet. After 42 days, the kill in % is determined. 100% means that all of the ticks have been killed; 0% means that none of the ticks have been killed.

Data set [7] has as its system adult cat fleas (Ctenocephalides felis). Put plainly: Ctenocephalides felis oral test (CTECFE). The class given is in vivo. Particulars: application rate 100 ppm in citrated cattle blood; after 2 days. As for the experimental part: Ctenocephalides felis-Oral Test ([…]) Solvent: dimethyl sulphoxide To produce a suitable preparation of active compound, 10 mg of active compound are mixed with 0.5 ml of dimethyl sulphoxide. Dilution with citrated cattle blood gives the desired concentration. About 20 unfed adult cat fleas (Ctenocephalides felis) are placed into a chamber which is closed at the top and bottom with gauze. A metal cylinder whose bottom end is closed with a parafilm is placed onto the chamber. The cylinder contains the blood/active ingredient preparation, which can be imbibed by the fleas through the parafilm membrane. After 2 days, the kill in % is determined. 100% means that all of the fleas have been killed; 0% means that none of the fleas have been killed.

For data set [8], the system named is greenhouse red spider mite (Tetranychus urticae), OP-resistant. Put plainly: Tetranychus urticae spray test, OP-resistant (TETRUR). It is filed as in vivo. Particulars: application rate 100 g/ha; bean leaf discs; after 6 days. The method, then: Tetranychus urticae—Spray Test, OP-Resistant (TETRUR)
(§5) Solvents: 78.0 parts by weight of acetone
as §1, §2
Discs of bean leaves (Phaseolus vulgaris) which are infested by all stages of the greenhouse red spider mite (Tetranychus urticae) are sprayed with an active compound preparation of the desired concentration.
After 6 days, the efficacy in % is determined. 100% means that all of the spider mites have been killed; 0% means that none of the spider mites have been killed.

Data set [9] has as its system larvae of the mustard beetle (Phaedon cochleariae). Put plainly: Phaedon cochleariae spray test (PHAECO). The class given is in vivo. Conditions: application rate 100 g/ha; Chinese cabbage leaf discs; after 7 days. The method, then:
Phaedon cochleariae—Spray Test (PHAECO)
as §5, §1, §2
After 7 days, the efficacy in % is determined. 100% means that all of the beetle larvae have been killed; 0% means that none of the beetle larvae have been killed.

Data set [10] deals with caterpillars of the armyworm (Spodoptera frugiperda). Put plainly: Spodoptera frugiperda spray test (SPODFR). The class given is in vivo. Conditions: application rate 100 g/ha; maize leaf discs; after 7 days. As for the experimental part: Spodoptera frugiperda—Spray Test (SPODFR)
as §5, §1, §2
Leaf discs of maize (Zea mays) are sprayed with an active compound preparation of the desired concentration and, after drying, populated with caterpillars of the armyworm (Spodoptera frugiperda).
After 7 days, the efficacy in % is determined. 100% means that all of the caterpillars have been killed; 0% means that none of the caterpillars have been killed.

The subject of data set [11] is L1 larvae of the Australian sheep blowfly (Lucilia cuprina). The data set is described as follows: Lucilia cuprina test (LUCICU). It is filed as in vivo. Particulars: application rate 100 ppm; minced horsemeat; after 2 days. As for the experimental part: Lucilia cuprina Test (LUCICU) Solvent: dimethyl sulphoxide To produce a suitable preparation of active compound, 10 mg of active compound are mixed with 0.5 ml of dimethyl sulphoxide, and the concentrate is diluted with water to the desired concentration. About 20 L1 larvae of the Australian sheep blowfly (Lucilia cuprina) are transferred into a test vessel containing minced horsemeat and the active compound preparation of the desired concentration. After 2 days, the kill in % is determined. 100% means that all of the larvae have been killed; 0% means that none of the larvae have been killed.

For data set [12], the system named is southern root-knot nematode (Meloidogyne incognita). Put plainly: Meloidogyne incognita test (MELGIN). The class given is in vivo. Particulars: application rate 20 ppm; lettuce; after 14 days. As for the experimental part: Meloidogyne incognita Test (MELGIN) Solvent: 125.0 parts by weight of acetone To prepare a suitable active compound preparation, 1 part by weight of active compound is mixed with the stated amount of solvent and the concentrate is diluted with water to the desired concentration. Vessels are filled with sand, active compound solution, an egg/larvae suspension of the southern root-knot nematode (Meloidogyne incognita) and lettuce seeds. The lettuce seeds germinate and the plants develop. On the roots, galls are formed. After 14 days, the nematicidal efficacy in % is determined by the formation of galls. 100% means that no galls have been found; 0% means that the number of galls on the treated plants corresponds to the untreated control.

For the compound `Cn1nc(C(F)(F)C(F)(F)F)c(C(F)(F)F)c1-n1cc(-c2cccc(CNC(=O)OC(C)(C)C)c2)cn1` [Ic-18, tert-butyl {3-[2′-methyl-5′-(pentafluoroethyl)-4′-(trifluoromethyl)-2′H-1,3′-bipyrazol-4-yl]benzyl}carbamate], in data set [1], the chromatographic logP is 4.74. The compound also returned an efficacy in % in data set [2] of 100%. In data set [3], the “efficacy (no laying of fertile eggs)” value is given as 100%.

Regarding `CCC(=O)NCc1cc(-c2cnn(-c3c(C(F)(F)F)c(C(F)(F)C(F)(F)F)nn3C)c2)ccc1F` [Ic-2], the kill in % in data set [4], in data set [6], in data set [7] and in data set [11] was 100% throughout. Further, the “efficacy (no laying of fertile eggs)” value in [5] and in data set [3] was 100% throughout. Also, the efficacy in % in data set [8], in data set [9] and in [10] was 100% each time.

On to `CCC(=O)NC(C)c1cccc(-c2cnn(-c3c(C(F)(F)F)c(C(F)(F)C(F)(F)F)nn3C)c2)c1` (stereo not shown) [Ic-33], for which the efficacy in % was 90% in data set [2], 100% in [8] and 100% in data set [9].

Take `Cn1nc(C(F)(F)C(F)(F)F)c(C(F)(F)F)c1-n1cc(-c2cccc(CNC(=O)C3CC3)c2)cn1` [Ic-17]: the kill in % in data set [4] is given as 100%; in data set [6], 90%; in data set [7], 100%; in data set [11], 100%. The “efficacy (no laying of fertile eggs)” value in data set [5] and in data set [3] was 100% each time. In addition, the efficacy in % in data set [8] and in data set [9] was 100% each time.

With `CCC(=O)NCc1cccc(-c2ncn(-c3c(C(F)(F)F)c(C(F)(F)C(F)(F)F)nn3C)n2)c1` [Ie-1], the “nematicidal efficacy in % (formation of galls)” value (“nematicidal efficacy in %” for short) in data set [12] came to 90%.

Consider `CC(=O)NCc1cncc(-c2cnn(-c3c(C(F)(F)F)c(C(F)(F)C(F)(F)F)nn3C)c2)c1` [Ic-8], for which the efficacy in % in data set [2] is 90%; in [8] it was 90%; in [9], 100%.

For `CC(F)C(=O)NCc1cc(-c2cnn(-c3c(C(F)(F)F)c(C(F)(F)C(F)(F)F)nn3C)c2)ccc1F` (racemic) [Ic-22], the efficacy in % in [2] was found to be 90%; in data set [8], 100%; in [9], 100%; in data set [10], 83%.

Regarding `CC(=O)NCc1cc(-c2cnn(-c3c(C(F)(F)F)c(C(F)(F)C(F)(F)F)nn3C)c2)ccc1F` [Ic-4], the kill in % in data set [4], in data set [6], in [7] and in data set [11] was 100% throughout. For the same compound, the “efficacy (no laying of fertile eggs)” value in data set [5] and in data set [3] was 100% in each case. In addition, the efficacy in % is recorded as 100% in data set [8], 100% in data set [9] and 83% in [10].

On to `Cn1nc(C(F)(F)C(F)(F)F)c(C(F)(F)F)c1-n1cc(-c2ccc(F)c(CNC(=O)Cc3cccs3)c2)cn1` [Ic-7], for which the “nematicidal efficacy in %” value in [12] came to 90%. Besides, the kill in % is on record as 90% in data set [7] and 100% in data set [11]. The efficacy in % in [8] is recorded as 100%; in [9] it was 100%; in data set [10] it was 83%. Also, the “efficacy (no laying of fertile eggs)” value in [3] is on record as 100%.

As to `Cn1nc(C(F)(F)C(F)(F)F)c(C(F)(F)F)c1-n1cc(-c2ccc(F)c(CNC(=O)c3ccsc3)c2)cn1` [Ic-23], the “nematicidal efficacy in %” value in [12] is reported as 90%. Moreover, the efficacy in % in data set [9] turned out to be 100%. In addition, the “efficacy (no laying of fertile eggs)” value in data set [3] was 100%. This compound had a kill in % in [11] of 95%.

Turning to `CCC(=O)NCc1cncc(-c2cnn(-c3c(C(F)(F)F)c(C(F)(F)C(F)(F)F)nn3C)c2)c1` [Ic-26], the efficacy in % in [2] is reported as 100%; in [8], 90%; in [9] it was 100%; in [10] it was 83%.
